Tested on: locally advanced or metastatic breast cancer
Experiment: Phase III clinical trial comparing eribulin mesylate and capecitabine
Conditions: for overall survival as compared to capecitabine: FIG. 6
[1] = of patients with any new metastasis

Description: A global, randomized, open-label, two-parallel-arm, phase III clinical trial of eribulin (eribulin mesylate) and capecitabine was performed.
This study randomized 1102 patients who had up to three prior chemotherapy regimens, and no more than two prior regimens for advanced and/or metastatic disease. The prior regimens must have included an anthracycline and a taxane, either in the (neo) adjuvant setting or for locally advanced or metastatic disease. Patients must have had documented evidence of progression during or after their most recent anti-cancer therapy. […] Patients were randomized to receive either eribulin mesylate as an intravenous (IV) infusion of 1.4 mg/m^2 over 2-5 minutes on days 1 and 8 every 21 days or capecitabine as an oral administration of 2.5 g/m^2/day administered twice daily in two equal doses on days 1 to 14 every 21 days.
This study was designed to have co-primary endpoints, overall survival (OS) and progression free survival (PFS), with alpha spending 0.04 and 0.01, respectively.
Progression events (disease progression determined by Response Evaluation Criteria in Solid Tumors [RECIST, version 1.0]) were categorized as: (i) emergence of a new lesion/metastasis, defined here as a lesion identified at progression that had not been previously reported, (ii) increase in size of an existing (previously reported) lesion (target or non-target), and (iii) other PFS event, e.g., death, clinical progression, or censoring. Investigator review of disease progression was used as the primary analysis for these investigations. Where progression was determined by investigator review, no further scans were performed, leading to informative censoring of independent review data (approximately 20%). The number of new metastases observed by independent review was considered an under-estimate due to this considerable informative censoring. OS and PFS were compared between treatment arms using two-sided, stratified (geographic region and HER2 status) log-rank tests. The correlation between progression events and OS was investigated by Cox regression, incorporating the event as a time-dependent covariate. New metastasis-free survival, defined as time from randomization to death or progression due to appearance of a new metastasis (whichever occurs earlier), was also analyzed.

C=C1C[C@@H]2CC[C@@]34C[C@H]5O[C@H]6[C@@H](O3)[C@H]3O[C@H](CC[C@@H]3O[C@H]6[C@H]5O4)CC(=O)C[C@@H]3[C@@H](OC)[C@@H](C[C@H](O)CN)O[C@H]3C[C@H]3O[C@@H](CC[C@@H]1O2)C[C@@H](C)C3=C.CS(=O)(=O)O [Eribulin, 11,15:18,21:24,28-Triepoxy-7,9-ethano-12,15-methano-9H,15H-furo[3,2-i]furo[2′,3′:5,6]pyrano[4,3-b][1,4]dioxacyclopentacosin-5(4H)-one, 2-[(2S)-3-amino-2-hydroxypropyl]hexacosahydro-3-methoxy-26-methyl-20,27-bis(methylene)-, (2R,3R,3aS,7R,8aS,9S,10aR,11S,12R,13aR,13bS,15S,18S,21S,24S,26R,28R,29aS)-methanesulfonate (salt)]
time to a new metastasis observed in the CNS, lungs, or liver (FIG. 5, in words): trend favouring eribulin over capecitabine
overall survival as compared to capecitabine (HER2 negative patients, in words): increased overall survival
median overall survival (OS) (all randomized patients): 15.9 months
median progression-free survival (PFS) (all randomized patients): 4.1 months
median survival as compared to capecitabine (breast cancers not characterized as triple negative, FIG. 7B, in words): similar
New metastasis site: Bone, patients (count): 60
New metastasis site: Breast, patients (count): 12
New metastasis site: CNS (brain/spine), patients (count): 13
New metastasis site: Chest wall, patients (count): 15
New metastasis site: Liver, patients (count): 71
New metastasis site: Lung, patients (count): 59
New metastasis site: Lymph nodes, patients (count): 64
New metastasis site: Other, patients (count): 30
New metastasis site: Skin, patients (count): 23
Number of patients with any new metastasis observed (count, investigator review, intent-to-treat): 291
hazard ratio, overall survival (eribulin versus capecitabine, 95% CI 0.77, 1.00): 0.88
hazard ratio, progression-free survival (eribulin versus capecitabine, 95% CI 0.93, 1.25): 1.08
1-year OS relative to capecitabine (in words): statistically significant improvement
new metastasis-free survival, median difference in favour of eribulin (independent review): 0.3 months
new metastasis-free survival, median difference in favour of eribulin (investigator review): 0.6 months
patients with progression due to a new metastasis (investigator review): 48.9%
patients with progression due to increase in the size of a pre-existing lesion (investigator review): 26.5%
patients with progression due to other reasons such as death and clinical progression (investigator review): 24.5%
patients with any new metastasis observed, percentage (investigator review, intent-to-treat): (52.5) %
HR, new metastasis-free survival (investigator review, eribulin versus capecitabine): 0.90
New metastasis site: Bone, percentage [1]: (20.6) %
New metastasis site: Breast, percentage [1]: (4.1) %
New metastasis site: CNS (brain/spine), percentage [1]: (4.5) %
New metastasis site: Chest wall, percentage [1]: (5.2) %
New metastasis site: Liver, percentage [1]: (24.4) %
New metastasis site: Lung, percentage [1]: (20.3) %
New metastasis site: Lymph nodes, percentage [1]: (22.0) %
New metastasis site: Other, percentage [1]: (10.3) %
New metastasis site: Skin, percentage [1]: (7.9) %
median OS longer with eribulin compared with capecitabine (patients whose disease progressed due to a new metastasis): 2.6 months
Median OS (patients whose disease progressed due to other events): 16.7 months
Median OS (patients with progression due to new metastasis): 15.5 months
Median OS (patients with progression due to pre-existing lesion): 17.4 months
HR, overall survival (progression due to new metastasis, eribulin versus capecitabine): 0.81
HR, overall survival (progression due to other events, eribulin versus capecitabine): 0.78
HR, overall survival (progression due to pre-existing lesion, eribulin versus capecitabine): 1.13
median survival as compared to capecitabine (triple negative breast cancers, FIG. 7A, in words): statistically significant increase
overall survival as compared to capecitabine (triple negative patients, in words): most significant improvement

Source: patent US20140163095A1, “USE OF ERIBULIN IN THE TREATMENT OF BREAST CANCER” (priority 2012, published 2014)
